This assay has as its target PolQ ATPase enzyme (1-894) (Homo sapiens (Human), UniProt O75417). The experiment in a line: Polθ ATPase enzymatic assay (0.5 nM enzyme concentration), ADP-Glo. It counts as biochemical. As to conditions: average IC50; 0.5 nM PolQ ATPase enzyme (1-894). On the procedure:
PolQ ATPase enzyme (1-894) at 0.5 nM is incubated with a 10-point concentration response of inhibitors for 15 min at rt in the following buffer: 50 mM Tris Cl pH 7.5, 10% glycerol, 5 mM DTT, 10 mM MgCl2, 0.1 mg/ml BSA. Following pre-incubation with inhibitors, DNA (Fork C) at 20 nM and ATP at 100 μM are added to start the reaction. Enzymatic reaction proceeds at rt for 180 min ATP consumption is measured using the ADP-Glo assay from Promega. Luminescence is read on the Envision and IC50 are determined using the variable slope 4-parameters equation.
Oligos are annealed by heating at 9500 for 5 min in the following buffer (10 mM Tris-HCl pH7.5, 50 mM NaCl, 1 mM EDTA) and cooled to rt. […]
For orientation: In ADP-Glo the light output rises with the ADP produced.

Sequence of PolQ ATPase enzyme (1-894) (O75417 1-894): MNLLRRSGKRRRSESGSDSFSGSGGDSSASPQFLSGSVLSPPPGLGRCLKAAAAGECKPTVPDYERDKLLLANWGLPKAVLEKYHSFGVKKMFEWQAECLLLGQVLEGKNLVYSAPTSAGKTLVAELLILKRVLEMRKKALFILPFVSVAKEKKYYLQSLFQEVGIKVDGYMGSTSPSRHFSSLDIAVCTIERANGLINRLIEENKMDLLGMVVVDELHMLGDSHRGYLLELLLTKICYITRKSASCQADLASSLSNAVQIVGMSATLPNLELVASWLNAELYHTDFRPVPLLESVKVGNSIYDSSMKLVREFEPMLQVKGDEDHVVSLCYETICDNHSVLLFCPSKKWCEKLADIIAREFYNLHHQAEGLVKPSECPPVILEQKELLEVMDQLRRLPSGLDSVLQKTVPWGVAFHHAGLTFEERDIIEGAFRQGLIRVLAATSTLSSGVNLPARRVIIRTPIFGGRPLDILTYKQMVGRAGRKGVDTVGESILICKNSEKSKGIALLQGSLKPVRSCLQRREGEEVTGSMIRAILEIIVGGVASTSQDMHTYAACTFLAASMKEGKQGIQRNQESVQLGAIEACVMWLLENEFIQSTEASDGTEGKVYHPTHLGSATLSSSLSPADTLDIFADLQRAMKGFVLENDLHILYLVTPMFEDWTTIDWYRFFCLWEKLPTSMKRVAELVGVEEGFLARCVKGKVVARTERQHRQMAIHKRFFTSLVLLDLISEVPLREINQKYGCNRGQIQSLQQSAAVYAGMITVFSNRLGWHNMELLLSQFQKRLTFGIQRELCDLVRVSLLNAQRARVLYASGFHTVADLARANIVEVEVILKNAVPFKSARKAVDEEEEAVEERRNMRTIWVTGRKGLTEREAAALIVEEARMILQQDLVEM

Molecule `COc1cnc(C(F)F)cc1-c1cc(-c2ccncn2)ncc1C(=O)Nc1nnc(C#CC2CC2)s1` [Compound 135] registered an IC50 below 0.25 nM.

In turn, `COc1cnc(C(F)F)cc1-c1cc(N(C)Cc2cnn(C)c2)ccc1C(=O)Nc1nnc(C#CC2CC2)s1` [Compound 136] showed an IC50 of 8.5 nM.

Take `COc1cnc(C(F)F)cc1-c1cc(N2CCN(C(C)=O)CC2=O)ccc1C(=O)Nc1nnc(C#CC2CC2)s1` [Compound 137]: the midpoint of inhibition, the IC50, lay at 0.26 nM.

`COc1cnc(C(F)F)cc1-c1cc(-c2nnc(C)s2)ccc1C(=O)Nc1nnc(C#CC2CC2)s1` [Compound 138] came in with an IC50 below 0.25 nM.

With `COc1cnc(C(F)F)cc1-c1cc(-c2ccn(C)n2)cnc1C(=O)Nc1ncc(C#CC2CC2)s1` [Compound 139, N-(5-(cyclopropylethynyl)thiazol-2-yl)-2′-(difluoromethyl)-5′-methoxy-5-(1-methyl-1H-pyrazol-3-yl)-[3,4′-bipyridine]-2-carboxamide], the IC50 is 61 nM.

As for `COc1cnc(C(F)F)cc1-c1cc(N2CCC(C)CC2=O)ncc1C(=O)Nc1nnc(C#CC2CC2)s1` (stereo not drawn) [Compound 141], the IC50 was below 0.25 nM.

Consider `COc1cnc(C(F)F)cc1-c1cc(N2CCC3CC3C2=O)ncc1C(=O)Nc1nnc(C#CC2CC2)s1` (stereo not drawn) [Compound 142], for which the half-inhibitory concentration (IC50) was below 0.25 nM.

`COc1cnc(C(F)F)cc1-c1cc(N2CCNCC2=O)ccc1C(=O)Nc1nnc(C#CC2CC2)s1` [Compound 143]: the IC50 is below 0.25 nM.

As for `COc1cnc(C(F)F)cc1-c1cc(N2CCN(C(=O)OC(C)(C)C)CC2=O)ccc1C(=O)Nc1nnc(C#CC2CC2)s1` [Compound 144], the IC50 worked out at 0.26 nM.

On to `COc1cnc(C(F)F)cc1-c1cc(-c2cc[nH]n2)ncc1C(=O)Nc1nnc(C#CC2CC2)s1` [Compound 145, N-(5-(cyclopropylethynyl)-1,3,4-thiadiazol-2-yl)-2′-(difluoromethyl)-5′-methoxy-6-(1H-pyrazol-3-yl)-[4,4′-bipyridine]-3-carboxamide], for which the IC50 was below 0.25 nM.

Turning to `COc1cnc(C(F)F)cc1-c1cc(C#CC2CCCOC2)ncc1C(=O)Nc1nnc(C#Cc2cc(C)[nH]n2)s1` (stereo not drawn) [Compound 146], the IC50 is below 0.25 nM.

On to `COc1cnc(C(F)F)cc1-c1cc(OC[C@@H]2CCC(=O)N2C)ncc1C(=O)Nc1nnc(C#CC2CC2)s1` [Compound 147], for which half-maximal inhibition (IC50) required 0.31 nM.

The molecule `COc1cnc(C(F)F)cc1-c1cc(OC[C@@H]2CCOC2)ncc1C(=O)Nc1nnc(C#CC2CC2)s1` [Compound 148] gave an IC50 of 0.93 nM.

For `COc1cnc(C(F)F)cc1-c1cc(OC[C@H]2CCOC2)ncc1C(=O)Nc1nnc(C#CC2CC2)s1` [Compound 149], the 50% inhibitory concentration (IC50) was 0.37 nM.

For `COc1cnc(C(F)F)cc1-c1cc(OCC2CCOCC2)ncc1C(=O)Nc1nnc(C#CC2CC2)s1` [Compound 150, N-(5-(cyclopropylethynyl)-1,3,4-thiadiazol-2-yl)-2′-(difluoromethyl)-5′-methoxy-6-((tetrahydro-2H-pyran-4-yl)methoxy)-[4,4′-bipyridine]-3-carboxamide], the IC50 is below 0.25 nM.

Molecule `COc1cnc(C(F)F)cc1-c1cc(C#CC2(C)CCCO2)ncc1C(=O)Nc1nnc(C#CC2CC2)s1` (stereo not drawn) [Compound 151] returned an IC50 below 0.25 nM.

In the case of `COc1cnc(C(F)F)cc1-c1cc(Nc2nnc(C)o2)ccc1C(=O)Nc1nnc(C#CC2CC2)s1` [Compound 152], it took 1.2 nM to reach half-maximal inhibition (IC50).

Take `COc1cnc(C(F)F)cc1-c1cc(-c2nnc(C)o2)ccc1C(=O)Nc1nnc(C#Cc2cc(C)[nH]n2)s1` [Compound 153]: the IC50 is below 0.25 nM.

Molecule `C#C[C@@H]1CC1c1nnc(NC(=O)c2cnc(-c3ccn(C)n3)cc2-c2cc(C(F)F)ncc2OC)s1` (stereo partly drawn) [Compound 154] showed an IC50 below 0.25 nM.

In turn, `COc1cnc(C(F)F)cc1-c1cc(-c2ccn(C)n2)cnc1C(=O)Nc1nnc(C#CC2CC2)s1` [Compound 156] gave an IC50 of 1.1 nM.

The molecule `COc1cnc(C(F)F)cc1-c1cc(-c2ccn(C)n2)ncc1C(=O)Nc1nc(C)c(C#CC2CC2)s1` [Compound 157] showed a half-inhibitory concentration (IC50) of 115 nM.

`COc1cnc(C(F)F)cc1-c1cc(N2CCOC3(CC3)C2=O)ncc1C(=O)Nc1nnc(C#CC2CC2)s1` [Compound 158] had an IC50 below 0.25 nM.

In turn, `COc1cnc(C(F)F)cc1-c1cc(NCCOCC(=O)O)ncc1C(=O)Nc1nnc(C#CC2CC2)s1` [Compound 159] had an IC50 of 0.79 nM.

`COc1cnc(C(F)F)cc1-c1cc(-c2ccn(C)n2)ncc1C(=O)Nc1nnc(C#Cc2cc(C)[nH]n2)s1` [Compound 161] came in with an IC50 below 0.25 nM.

Consider `COc1cnc(C(F)F)cc1-c1cc(N2CC3(COC3)C2)ncc1C(=O)Nc1nnc(C#CC2CC2)s1` [Compound 162], for which the IC50 was 13 nM.

For the molecule `COc1cnc(C(F)F)cc1-c1cc(-n2ccncc2=O)ccc1C(=O)Nc1nnc(C#CC2CC2)s1` [Compound 163], the IC50 is below 0.25 nM.

In turn, `COc1cnc(C(F)F)cc1-c1cc(-c2nnc(C)o2)ccc1C(=O)Nc1nc(C)c(C#CC2CC2)s1` [Compound 164] showed an IC50 of 289 nM.

`COc1cnc(C(F)F)cc1-c1cc(Nc2ccn(C)n2)ccc1C(=O)Nc1nnc(C#CC2CC2)s1` [Compound 166] gave an IC50 of 0.52 nM.

In turn, `COc1cnc(C(F)F)cc1-c1cc(N2CCCOC2=O)ncc1C(=O)Nc1nnc(C#CC2CC2)s1` [Compound 167] displayed an IC50 below 0.25 nM.

`COc1cnc(C(F)F)cc1-c1cc(-c2nnc(C)o2)ccc1C(=O)Nc1nnc(C2C[C@H]2c2ccc(C#N)cc2)s1` (stereo partly drawn) [Compound 168] gave an IC50 of 0.34 nM.

With `COc1cnc(C(F)F)cc1-c1cc(-c2cnccn2)ncc1C(=O)Nc1nnc(C#CC2CC2)s1` [Compound 172], the IC50 is 1.5 nM.

In turn, `COc1cnc(C(F)F)cc1-c1cc(N2CCO[C@H](C)C2=O)ncc1C(=O)Nc1nnc(C#CC2CC2)s1` [Compound 173] registered an IC50 of 0.41 nM.

`COc1cnc(C(F)F)cc1-c1cc(N2CCO[C@@H](C)C2=O)ncc1C(=O)Nc1nnc(C#CC2CC2)s1` [Compound 174] showed an IC50 below 0.25 nM.

Molecule `COc1cnc(C(F)F)cc1-c1cc(Oc2ccn(C)n2)ncc1C(=O)Nc1nnc(C#CC2CC2)s1` [Compound 175] yielded an IC50 of 0.51 nM.

Molecule `COc1cnc(C(F)F)cc1-c1cc(N2CCOCC2=O)ncc1C(=O)Nc1nnc(C#Cc2ccc(Cl)cc2)s1` [Compound 176] returned a 50% inhibitory concentration (IC50) of 23 nM.

Consider `C#C[C@@H]1C[C@H]1c1nnc(NC(=O)c2ccc(N3CCOCC3=O)cc2-c2cc(C(F)F)ncc2OC)s1` [Compound 177], for which the IC50 turned out to be 0.39 nM.

The molecule `COc1cnc(C(F)F)cc1-c1cc(CC#N)ncc1C(=O)Nc1nnc(C#Cc2ccc(Cl)cc2)s1` [Compound 178] came in with an IC50 below 0.25 nM.

In turn, `COc1cnc(C(F)F)cc1-c1cc(CC(=O)N(C)C)ncc1C(=O)Nc1nc(C)c(C#CC2CC2)s1` [Compound 179] returned a concentration for half-maximal inhibition (IC50) of 1.6 nM.

In the case of `COc1cnc(C(F)F)cc1-c1cc(OCC2CC2)ncc1C(=O)Nc1nnc(C#CC2CC2)s1` [Compound 180], the IC50 came out at 4.6 nM.

The molecule `COc1cnc(C(F)F)cc1-c1cc(OCCOC(F)F)ncc1C(=O)Nc1nnc(C#CC2CC2)s1` [Compound 181] came in with an IC50 of 0.75 nM.

Consider `COc1cnc(C(F)F)cc1-c1cc(OC2CCN(C)C2=O)ncc1C(=O)Nc1nnc(C#CC2CC2)s1` (stereo not drawn) [Compound 182], for which the concentration for half-maximal inhibition (IC50) came to 1.2 nM.

`COc1cnc(C(F)F)cc1-c1cc(OCc2ccn(C)n2)ncc1C(=O)Nc1nnc(C#CC2CC2)s1` [Compound 183] yielded an IC50 of 0.49 nM.

The molecule `COc1cnc(C(F)F)cc1-c1cc(C#CC(C)(C)C#N)ncc1C(=O)Nc1nnc(C#CC2CC2)s1` [Compound 184] yielded an IC50 of 0.45 nM.

`COc1cnc(C(F)F)cc1-c1cc(C#Cc2cnn(C)c2)ncc1C(=O)Nc1nnc(C#CC2CC2)s1` [Compound 185]: the IC50 is below 0.25 nM.

Regarding `COc1cnc(C(F)F)cc1-c1cc(OC[C@H]2CCCO2)ncc1C(=O)Nc1nnc(C#CC2CC2)s1` [Compound 186], the IC50 amounted to 0.79 nM.

Turning to `COc1cnc(C(F)F)cc1-c1cc(-c2cn(C)cn2)ncc1C(=O)Nc1nnc(C#CC2CC2)s1` [Compound 187], half-maximal inhibition (IC50) was put at 0.91 nM.

`COc1cnc(C(F)F)cc1-c1cc(-c2cnn(C3CCOCC3)c2)ccc1C(=O)Nc1nnc(C#CC2CC2)s1` [Compound 188] displayed an IC50 of 1.9 nM.

`COc1cnc(C(F)F)cc1-c1cc(C#CCN2CCOC[C@H]2C)ncc1C(=O)Nc1nnc(C#CC2CC2)s1` [Compound 189] registered an IC50 below 0.25 nM.

`C#C[C@H]1C[C@@H]1c1nnc(NC(=O)c2cnc(CC#N)cc2-c2cc(C(F)F)ncc2OC)s1` [Compound 190] had an IC50 of 5.8 nM.

Molecule `COc1cnc(C(F)F)cc1-c1cc(N2CCCC2=O)ncc1C(=O)Nc1ncc(C#CC2CC2)s1` [Compound 191] registered an IC50 of 15 nM.

`COc1cnc(C(F)F)cc1-c1cc(N2CCCCC2=O)ncc1C(=O)Nc1nnc(C#CC2CC2)s1` [Compound 192] returned an IC50 of 0.33 nM.

Molecule `COc1cnc(C(F)F)cc1-c1cc(CC#N)ccc1C(=O)Nc1ncc(C#CC2CC2)s1` [Compound 193] returned an IC50 of 2.5 nM.

`COc1cnc(C(F)F)cc1-c1cc(N2CCN(C)CC2=O)ncc1C(=O)Nc1nnc(C#CC2CC2)s1` [Compound 194] had an IC50 of 0.61 nM.

With `COc1cnc(C(F)F)cc1-c1cc(CC(=O)N2CC(F)(F)C2)ccc1C(=O)Nc1nnc(C#CC2CC2)s1` [Compound 195], the IC50 was below 0.25 nM.

On to `COc1cnc(C(F)F)cc1-c1cc(C#Cc2cn[nH]c2)ncc1C(=O)Nc1nnc(C#CC2CC2)s1` [Compound 196], for which the IC50 was below 0.25 nM.

Consider `COc1cnc(C(F)F)cc1-c1cc(C#CCN2CCNC2=O)ccc1C(=O)Nc1nnc(C#CC2CC2)s1` [Compound 197], for which the IC50 was below 0.25 nM.

`COc1cnc(C(F)F)cc1-c1cc(CC#N)ncc1C(=O)Nc1ncc(C#CC2CC2)s1` [Compound 198] showed an IC50 of 0.53 nM.

A word on the IC50: it is the concentration that gives 50% inhibition.

These data come from patent publication US20250026748A1, “N-(5-SUBSTITUTED-[(1,3,4-THIADIAZOLYL) OR (THIAZOLYL)])(SUBSTITUTED)CARBOXAMIDE COMPOUNDS AND USE THEREOF FOR INHIBITING HUMAN POLYMERASE THETA” (Repare Therapeutics Inc., priority 2021, published 2025).
